The structures appear in SMILES notation. Numbering of substitutions follows the chain as printed. Read-outs that look alike come from different tables or passages of the source.

One may read the EC50 as the concentration needed to bring the measured effect to its halfway point.

One assay addresses T1, ratM1 (Rattus norvegicus, UniProt P08482).
T1 construct: expressed in transfected cells; host or cells: CHO cells (stated generally for the assay, not specifically for rat M1)
T1 sequence (P08482 1-460): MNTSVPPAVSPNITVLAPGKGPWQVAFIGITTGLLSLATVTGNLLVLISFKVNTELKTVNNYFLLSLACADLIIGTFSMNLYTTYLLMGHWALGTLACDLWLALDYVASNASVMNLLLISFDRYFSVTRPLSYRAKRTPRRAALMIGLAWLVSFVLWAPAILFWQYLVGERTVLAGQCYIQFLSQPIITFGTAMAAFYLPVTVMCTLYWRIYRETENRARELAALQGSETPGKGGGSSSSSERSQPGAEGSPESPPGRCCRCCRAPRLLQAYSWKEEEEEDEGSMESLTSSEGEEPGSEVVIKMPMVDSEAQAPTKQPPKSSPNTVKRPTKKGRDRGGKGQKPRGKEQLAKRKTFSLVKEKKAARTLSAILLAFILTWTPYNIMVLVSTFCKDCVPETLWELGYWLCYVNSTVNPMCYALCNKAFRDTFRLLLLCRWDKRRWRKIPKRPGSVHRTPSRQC
Put plainly: M1 PAM assay (FLIPR intracellular calcium), rat M1. The assay is classed as cell-based. On the technique in general: Calcium flux is commonly read through the fluorescence of an indicator in the cells.

Another assay addresses T2, human M1 (Homo sapiens, UniProt P11229).
T2 construct: expressed in transfected cells; host or cells: CHO cells
T2 sequence (P11229 1-460): T1 sequence (P08482 1-460) with V5A, S254T, S309P, K320R, G337A, V413I
Nature of the assay: M1 PAM assay (FLIPR intracellular calcium), human M1. The assay is classed as cell-based. Summed up: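 CHO cells expressing M1, Fluo-4AM-loaded, in HEPES/probenecid HBSS pH 7.4, 1% DMSO final. Compounds pre-incubated 2 min for agonist activity versus 30 nM acetylcholine control. For PAM activity, acetylcholine EC20 added after the 2 min pre-incubation, then 2 min more before FLIPR intracellular Ca2+ read.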

Setting [1] is: rat M1, FLIPR Ca2+, second value of the cell, read-out: ratM1 EC50.
Setting [2] is: CHO human M1 cells, FLIPR Ca2+, with EC20 of acetylcholine, first value of the cell, read-out: hM1 EC50.

Take `Cc1ccn(-c2ccc(Cn3cc(C(=O)N[C@H]4CCCC[C@@H]4O)c4c(F)c(F)ccc43)cc2)n1` [Example 61, 4,5-difluoro-N-((1S,2S)-2-hydroxycyclohexyl)-1-(4-(3-methyl-1H-pyrazol-1-yl)benzyl)-1H-indole-3-carboxamide]: the EC50 worked out at 0.515 µM at ratM1 (setting [1]) and 0.343 µM on human M1 (setting [2]).

On to `Cn1cc(-c2ccc(Cn3cc(C(=O)NC4CCOCC4)c4c(F)cccc43)cc2)cn1` [Example 65, Fluoro-1-(4-(1-methyl-1H-pyrazol-4-yl)benzyl)-N-(tetrahydro-2H-pyran-4-yl)-1H-indole-3-carboxamide], for which the EC50 at ratM1 (setting [1]) is 0.0599 µM; at human M1 (setting [2]), 0.0324 µM.

Consider `Cn1ncc2cc(Cn3cc(C(=O)NC4CCOCC4)c4c(F)cccc43)ccc21` [Example 66, 4-fluoro-1-((1-methyl-1H-indazol-5-yl)methyl)-N-(tetrahydro-2H-pyran-4-yl)-1H-indole-3-carboxamide], for which the 50% effective concentration (EC50) at ratM1 stood at 0.412 µM; at human M1, 0.216 µM.

With `Cc1cn(-c2ccc(Cn3cc(C(=O)NC4CCOCC4)c4c(F)cccc43)cc2)cn1` [Example 67, 4-fluoro-1-(4-(4-methyl-1H-imidazol-1-yl)benzyl)-N-(tetrahydro-2H-pyran-4-yl)-1H-indole-3-carboxamide], the half-maximal effective concentration (EC50) at ratM1 (setting [1]) was 0.183 µM; on human M1 (setting [2]), 0.0828 µM.

Consider `Cn1cc(-c2ccc(Cn3cc(C(=O)NC4CCOCC4)c4c(F)cccc43)cn2)cn1` [Example 68, 4-fluoro-1-((6-(1-methyl-1H-pyrazol-4-yl)yridine-3-yl)methyl)-N-(tetrahydro-2H-pyran-4-yl)-1H-indole-3-carboxamide], for which the figures for the EC50 on ratM1 (setting [1]) and on human M1 (setting [2]) were 0.182 µM and 0.267 µM, respectively.

For `Cn1cc(-c2ccc(Cn3nc(C(=O)N[C@H]4CCCC[C@@H]4O)c4c(F)ccc(F)c43)c(F)c2)cn1` [Example 72, 4,7-difluoro-1-(2-fluoro-4-(1-methyl-1H-pyrazol-4-yl)benzyl)-N-((1S,2S)-2-hydroxycyclohexyl)-1H-indazole-3-carboxamide], the concentration for a half-maximal effect (EC50) at ratM1 (setting [1]) turned out to be 0.133 µM; on human M1 (setting [2]) it was 0.0428 µM.

`Cn1cc(-c2ccc(Cn3nc(C(=O)N[C@H]4CCOC[C@@H]4O)c4c(F)ccc(F)c43)c(F)c2)cn1` [Example 73, 4,7-difluoro-1-(2-fluoro-4-(1-methyl-1H-pyrazol-4-yl)benzyl)-N-((3R,4S)-3-hydroxytetrahydro-2H-pyran-4-yl)-1H-indazole-3-carboxamide]: the EC50 at ratM1 (setting [1]) came out at 0.0943 µM; at human M1 (setting [2]), 0.0658 µM.

Turning to `Cn1cc(-c2ccc(Cn3nc(C(=O)N[C@H]4CCOC[C@@H]4O)c4c(F)ccc(F)c43)cn2)cn1` [Example 74, 4,7-difluoro-N-((3R,4S)-3-hydroxytetrahydro-2H-pyran-4-yl)-1-((6-(1-methyl-1H-pyrazol-4-yl)yridine-3-yl)methyl)-1H-indazole-3-carboxamide], the EC50 at ratM1 (setting [1]) was 0.0489 µM; at human M1 (setting [2]), 0.0548 µM.

In the case of `Cn1cc(-c2ccc(Cn3nc(C(=O)N[C@H]4CCCC[C@@H]4O)c4c(F)ccc(F)c43)cn2)cn1` [Example 75, 4,7-difluoro-N-((1S,2S)-2-hydroxycyclohexanol)-1-((6-(1-methyl-1H-pyrazol-4-yl)yridine-3-yl)methyl)-1H-indazole-3-carboxamide], the EC50 on ratM1 (setting [1]) was 0.046 µM; on human M1 (setting [2]), 0.0401 µM.

Turning to `NC(=O)c1ccc(Cn2cc(C(=O)N[C@H]3CCCC[C@@H]3O)c3c(F)cccc32)cc1` [Example 77, 1-(4-carbamoylbenzyl)-4-fluoro-N-((1S,2S)-2-hydroxycyclohexyl)-1H-indole-3-carboxamide], the EC50 was determined as 0.00247 µM on ratM1 (setting [1]) and 0.00221 µM at human M1 (setting [2]).

Consider `O=C(N[C@H]1CCOC[C@@H]1O)c1cn(Cc2ccc(-n3cncn3)nc2)c2cccc(F)c12` [Example 78, 1-((6-(1H-1,2,4-triazol-1-yl)yridine-3-yl)methyl)-4-fluoro-N-((3R,4S)-3-hydroxytetrahydro-2H-pyran-4-yl)-1H-indole-3-carboxamide], for which the EC50 on ratM1 (setting [1]) was 0.728 µM; on human M1 (setting [2]), 0.522 µM.

In the case of `O=C(N[C@H]1CCOC[C@@H]1O)c1cn(Cc2ccc(-c3nccs3)cc2)c2cccc(F)c12` [Example 79, 4-fluoro-N-((3R,4S)-3-hydroxytetrahydro-2H-pyran-4-yl)-1-(4-(thiazol-2-yl)benzyl)-1H-indole-3-carboxamide], the EC50 on ratM1 (setting [1]) was 0.0256 µM; on human M1 (setting [2]) it was 0.0168 µM.

Turning to `NC(=O)Cc1ccc(Cn2cc(C(=O)N[C@H]3CCCC[C@@H]3O)c3c(F)cccc32)cc1` [Example 80, 1-(4-(2-amino-2-oxoethyl)benzyl)-4-fluoro-N-((1S,2S)-2-hydroxycyclohexyl)-1H-indole-3-carboxamide], the EC50 at ratM1 (setting [1]) was found to be 0.263 µM; on human M1 (setting [2]), 0.11 µM.

As for `Cc1nc(-c2ccc(Cn3cc(C(=O)N[C@H]4CCOC[C@@H]4O)c4c(F)cccc43)cc2)no1` [Example 83, 4-fluoro-N-((3R,4S)-3-hydroxytetrahydro-2H-pyran-4-yl)-1-(4-(5-methyl-1,2,4-oxadiazol-3-yl)benzyl)-1H-indole-3-carboxamide], the results for the EC50 at ratM1 (setting [1]) and on human M1 (setting [2]) were 0.16 µM and 0.184 µM, respectively.

As for `O=C(N[C@H]1CCOC[C@@H]1O)c1cn(Cc2ccc(N3CCCC3=O)cc2)c2cccc(F)c12` [Example 84, 4-fluoro-N-((3R,4S)-3-hydroxytetrahydro-2H-pyran-4-yl)-1-(4-(2-oxopyrrolidin-1-yl)benzyl)-1H-indole-3-carboxamide], the EC50 worked out at 0.169 µM on ratM1 (setting [1]) and 0.182 µM at human M1 (setting [2]).

In the case of `CNC(=O)c1ccc(Cn2cc(C(=O)N[C@H]3CCCC[C@@H]3O)c3c(F)cccc32)c(F)c1` [Example 86, 4-fluoro-1-(2-fluoro-4-(methylcarbamoyl)benzyl)-N-((1S,2S)-2-hydroxycyclohexyl)-1H-indole-3-carboxamide], the EC50 at ratM1 (setting [1]) was found to be 0.013 µM; at human M1 (setting [2]), 0.00691 µM.

For the molecule `CNC(=O)c1ccc(Cn2cc(C(=O)N[C@H]3CCCC[C@@H]3O)c3c(F)cccc32)cn1` [Example 87, 4-fluoro-N-((1S,2S)-2-hydroxycyclohexyl)-1-((6-(methylcarbamoyl)pyridin-3-yl)methyl)-1H-indole-3-carboxamide], the values for the EC50 on ratM1 (setting [1]) and at human M1 (setting [2]) were 0.12 µM and 0.0734 µM, respectively.

As for `CNC(=O)c1ccc(Cn2cc(C(=O)N[C@H]3CCCC[C@@H]3O)c3c(F)cccc32)cc1F` [Example 88, 4-fluoro-1-(3-fluoro-4-(methylcarbamoyl)benzyl)-N-((1S,2S)-2-hydroxycyclohexyl)-1H-indole-3-carboxamide], the figures for the EC50 at ratM1 (setting [1]) and on human M1 (setting [2]) were 0.0158 µM and 0.0143 µM, respectively.

As to `Cn1cc(-c2ccc(Cn3cc(CC(=O)N[C@H]4CCOC[C@@H]4O)c4c(F)cccc43)c(F)c2)cn1` [Example 92, 2-[4-Fluoro-1-[[2-fluoro-4-(1-methylpyrazol-4-yl)phenyl]methyl]indol-3-yl]-N-[(3R,4S)-3-hydroxyoxan-4-yl]acetamide], the results for the EC50 on ratM1 (setting [1]) and on human M1 (setting [2]) were 0.057 µM and 0.035 µM, respectively.

Regarding `Cn1cc(-c2ccc(Cn3cc(CC(=O)N[C@H]4CCCC[C@@H]4O)c4c(F)cccc43)c(F)c2)cn1` [Example 93, 2-(4-fluoro-1-(2-fluoro-4-(1-methyl-1H-pyrazol-4-yl)benzyl)-1H-indol-3-yl)-N-((1S,2S)-2-hydroxycyclohexyl)acetamide], the EC50 at ratM1 (setting [1]) worked out at 1.88 µM; on human M1 (setting [2]), 0.191 µM.

For the molecule `Cn1ncc2cc(Cn3cc(C(=O)NC4CCOCC4)c4c(F)ccc(F)c43)ccc21` [Example 94, 4,7-difluoro-1-((1-methyl-1H-indazol-5-yl)methyl)-N-(tetrahydro-2H-pyran-4-yl)-1H-indole-3-carboxamide], the results for the 50% effective concentration (EC50) at ratM1 and on human M1 were 0.141 µM and 0.066 µM, respectively.

Take `Cn1cc(-c2ccc(Cn3cc(C(=O)NC4CCOCC4)c4c(F)ccc(F)c43)cc2)cn1` [Example 95, 4,7-difluoro-1-(4-(1-methyl-1H-pyrazol-4-yl)benzyl)-N-(tetrahydro-2H-pyran-4-yl)-1H-indole-3-carboxamide]: the EC50 on ratM1 (setting [1]) amounted to 0.05 µM; at human M1 (setting [2]), 0.027 µM.

In the case of `Cn1cc(-c2ccc(Cn3cc(C(=O)NC4CCOCC4)c4c(F)ccc(F)c43)c(F)c2)cn1` [Example 96, 4,7-difluoro-1-(2-fluoro-4-(1-methyl-1H-pyrazol-4-yl)benzyl)-N-(tetrahydro-2H-pyran-4-yl)-1H-indole-3-carboxamide], the EC50 at ratM1 (setting [1]) was determined as 0.073 µM; at human M1 (setting [2]), 0.028 µM.

Values taken from patent publication US9708259B2 (Hoffmann-La Roche Inc., priority 2013, dated 2017).
